assay: Inhibition of influenza A virus (A/Perth/16/2009(H3N2)) neuraminidase using MUNANA substrate pre-incubated for 30 mins before substrate addition by fluorometric assay

Row | Compound | IC50 [µM]
1 | O=c1cc(-c2ccc(O)c(O)c2)oc2cc(O[C@@H]3O[C@H](CO)[C@@H](O)[C@H](O)[C@H]3O)cc(O)c12 | 51.2
2 | O=c1cc(O)cc2oc(-c3ccc(O)c(O)c3)c(O[C@@H]3O[C@H](CO)[C@@H](O)[C@H](O)[C@H]3O)c(O)c1-2 [Quercetin 3-O-beta-D-glucoside] | 477
3 | O=c1c(O)c(-c2ccc(O)cc2)oc2cc(O)cc(O)c12 | 42.2
4 | C[C@@H]1O[C@@H](Oc2c(-c3ccc(O)c(O)c3)oc3cc(O)cc(O)c3c2=O)[C@H](O)[C@H](O)[C@H]1O [CHEBI:17558] | 121
5 | O=c1cc(O)cc2oc(-c3ccc(O)c(O)c3)c(O[C@@H]3O[C@H](CO)[C@H](O)[C@H](O)[C@H]3O)c(O)c1-2 [2-(3,4-Dihydroxy-phenyl)-5,7-dihydroxy-3-((2S,4R,5R)-3,4,5-trihydroxy-6-hydroxymethyl-tetrahydro-pyran-2-yloxy)-chromen-4-one] | 85.5
